Where two headings read alike, the source gives them in different places.
Experiments:
PI3Kα = assay: PI3K isoform selectivity, α versus δ; assay type: biochemical
[1] = Pharmacokinetics in patients after multiple administrations; assay type: in vivo, human; details: for AUC(0-inf) / AUC(0-t) / Cmax / Tmax / Vd/F / half-life / MRT last: human, serum, oral; for MRT last: read-out: MRT0→t
From the text: Additional File 6: Table S4. Mean pharmacokinetic parameters of patients after multiple administrations in each dosage group

basophil activation = assay: Inhibition of basophil activation in vitro; assay type: cell-based; details: at the serum concentration produced by the 80 mg dose level
PI3Kβ = assay: PI3K isoform selectivity, β versus δ; assay type: biochemical
PI3Kδ = PI3Kδ (Homo sapiens, UniProt O00329); assay: PI3Kδ kinase inhibition; assay type: biochemical
Sequence of PI3Kδ (O00329 whole entry): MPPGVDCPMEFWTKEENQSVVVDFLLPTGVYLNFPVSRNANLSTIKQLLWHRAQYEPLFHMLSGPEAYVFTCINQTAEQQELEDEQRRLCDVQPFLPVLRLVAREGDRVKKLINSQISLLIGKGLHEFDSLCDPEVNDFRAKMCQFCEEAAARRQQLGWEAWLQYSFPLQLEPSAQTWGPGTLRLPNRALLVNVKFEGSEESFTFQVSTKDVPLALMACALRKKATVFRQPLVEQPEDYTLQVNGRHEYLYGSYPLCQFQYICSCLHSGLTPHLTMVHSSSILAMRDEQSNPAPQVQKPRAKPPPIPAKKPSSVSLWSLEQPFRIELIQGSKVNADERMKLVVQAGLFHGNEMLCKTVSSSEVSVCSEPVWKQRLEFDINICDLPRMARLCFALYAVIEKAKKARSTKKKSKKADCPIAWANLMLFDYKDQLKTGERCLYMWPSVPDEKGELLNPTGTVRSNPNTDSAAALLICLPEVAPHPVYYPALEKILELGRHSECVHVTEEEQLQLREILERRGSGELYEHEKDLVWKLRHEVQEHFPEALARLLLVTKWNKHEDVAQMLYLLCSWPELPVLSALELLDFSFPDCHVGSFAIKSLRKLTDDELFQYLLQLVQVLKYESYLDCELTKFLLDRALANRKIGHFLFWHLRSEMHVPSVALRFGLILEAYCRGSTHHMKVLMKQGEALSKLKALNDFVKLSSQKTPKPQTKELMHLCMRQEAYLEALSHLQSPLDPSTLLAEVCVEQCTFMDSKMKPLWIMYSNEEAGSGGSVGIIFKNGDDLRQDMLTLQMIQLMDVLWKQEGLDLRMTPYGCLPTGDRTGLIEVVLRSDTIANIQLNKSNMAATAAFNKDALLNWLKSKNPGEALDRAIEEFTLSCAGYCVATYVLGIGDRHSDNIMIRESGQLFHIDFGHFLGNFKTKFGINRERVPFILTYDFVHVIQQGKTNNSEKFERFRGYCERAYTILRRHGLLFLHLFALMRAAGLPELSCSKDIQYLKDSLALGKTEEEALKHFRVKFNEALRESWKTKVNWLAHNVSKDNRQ
Sequence of PI3Kδ (P27986 whole entry partner): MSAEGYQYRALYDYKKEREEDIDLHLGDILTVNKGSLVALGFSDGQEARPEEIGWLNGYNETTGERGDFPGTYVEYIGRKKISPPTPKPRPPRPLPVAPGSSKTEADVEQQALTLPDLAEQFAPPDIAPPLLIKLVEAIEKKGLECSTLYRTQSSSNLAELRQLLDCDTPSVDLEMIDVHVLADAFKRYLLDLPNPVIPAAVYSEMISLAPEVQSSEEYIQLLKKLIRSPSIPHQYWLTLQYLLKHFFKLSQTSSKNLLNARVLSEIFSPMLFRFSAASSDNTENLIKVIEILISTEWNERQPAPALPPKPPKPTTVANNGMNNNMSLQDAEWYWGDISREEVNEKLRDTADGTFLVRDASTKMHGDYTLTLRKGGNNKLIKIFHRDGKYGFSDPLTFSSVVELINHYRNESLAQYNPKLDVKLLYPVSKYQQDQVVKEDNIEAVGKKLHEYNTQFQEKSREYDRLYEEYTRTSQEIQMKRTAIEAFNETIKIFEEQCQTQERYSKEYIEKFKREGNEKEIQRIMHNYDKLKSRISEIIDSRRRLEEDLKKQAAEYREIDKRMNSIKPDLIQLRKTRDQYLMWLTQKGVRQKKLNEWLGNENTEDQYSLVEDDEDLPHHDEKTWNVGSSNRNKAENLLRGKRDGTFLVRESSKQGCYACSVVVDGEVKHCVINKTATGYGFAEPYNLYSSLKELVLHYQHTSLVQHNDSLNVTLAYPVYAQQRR

[2] = Pharmacokinetics in patients after a single dose; assay type: in vivo, human; details: for AUC(0-inf) / AUC(0-t) / Cmax / Tmax / Vd/F / half-life / MRT last / MRT inf: human, serum, oral; for AUC(0-inf) / AUC(0-t) / Cmax / Tmax / Vd/F / half-life / MRT last / MRT inf / CL/F: single dose; for MRT last: read-out: MRT0→t; for MRT inf: read-out: MRT0→∞
From the text: Additional File 5: Table S3. Mean pharmacokinetic parameters of patients after a single dose in each dosage group

For `COc1ncc(-c2nc(N3CCOCC3)nc3c(CN4CCC(C(C)(C)O)CC4)cc(F)cc23)cc1NS(C)(=O)=O` [YY-20394, N-[5-[6-fluoro-8-[[4-(1-hydroxy-1-methylethyl)-1-piperidinyl]methyl]-2-(4-morpholinyl)-4-quinazolinyl]-2-methoxy-3-pyridinyl]-methanesulfonamide], the “Ratio of IC50 α/δ” value (PI3Kα) was 252, the “Ratio of IC50 γ/δ” value (PI3Kγ) was 1125 and the “kinase inhibition profile more PI3Kδ-selective” value (PI3Kγ; PI3Kδ versus PI3Kγ, compared with idelalisib) was ~2 orders of magnitude. It also gave a CL/F ([1]; 20 mg, mean) of 16.3 L/h, a Cmin ([1]; 20 mg, mean) of 0.0287 µg/mL and a Css ([1]; 20 mg, mean) of 0.051 µg/mL. It also gave a CL/F ([1]; 40 mg, mean ± SD) of 13.4 ± 3.7 L/h, a Cmin ([1]; 40 mg, mean ± SD) of 0.073 ± 0.0325 µg/mL and a Css ([1]; 40 mg, mean ± SD) of 0.1327 ± 0.043 µg/mL. For the same molecule, the CL/F ([1]; 80 mg, mean ± SD) was 11.1 ± 3.1 L/h, the Cmin ([1]; 80 mg, mean ± SD) was 0.1805 ± 0.0745 µg/mL and the Css ([1]; 80 mg, mean ± SD) was 0.3257 ± 0.0978 µg/mL. For the same molecule, the CL/F ([1]; 140 mg, mean ± SD) was 9.1 ± 0.6 L/h, the Cmin ([1]; 140 mg, mean ± SD) was 0.3596 ± 0.0315 µg/mL and the Css ([1]; 140 mg, mean ± SD) was 0.6423 ± 0.0402 µg/mL. The CL/F ([1]; 200 mg, mean ± SD) was 9.4 ± 2.2 L/h, the Cmin ([1]; 200 mg, mean ± SD) was 0.4724 ± 0.0716 µg/mL and the Css ([1]; 200 mg, mean ± SD) was 0.9186 ± 0.2017 µg/mL. The “exposure (Cmax, AUC0-t, AUC0-∞) versus dose” value ([1]; 20 to 200 mg) was “increased with dosage”, the AUC(0-inf) ([1]; 20 mg, mean) was 4.01 µg·h/mL and the AUC(0-t) ([1]; 20 mg, mean) was 1.22 µg·h/mL. For the same molecule, the Cmax ([1]; 20 mg, mean) was 0.0946 µg/mL, the Tmax ([1]; 20 mg, mean) was 4 h and the Vd/F ([1]; 20 mg, mean) was 930 L. The half-life ([1]; 20 mg, mean) was 39.5 h, the MRT last ([1]; 20 mg, mean) was 65.7 h and the AUC(0-inf) ([1]; 40 mg, mean ± SD) was 5.5 µg·h/mL. For the same molecule, the AUC(0-t) ([1]; 40 mg, mean ± SD) was 3.19 µg·h/mL, the Cmax ([1]; 40 mg, mean ± SD) was 0.208 ± 0.0583 µg/mL and the Tmax ([1]; 40 mg, mean ± SD) was 2.7 ± 1.2 h. The Vd/F ([1]; 40 mg, mean ± SD) was 392 ± 228 L, the half-life ([1]; 40 mg, mean ± SD) was 19.7 ± 7.2 h and the MRT last ([1]; 40 mg, mean ± SD) was 28.1 ± 10.5 h. For the same molecule, the AUC(0-inf) ([1]; 80 mg, mean ± SD) was 16.6 µg·h/mL, the AUC(0-t) ([1]; 80 mg, mean ± SD) was 7.82 µg·h/mL and the Cmax ([1]; 80 mg, mean ± SD) was 0.529 ± 0.171 µg/mL. For the same molecule, the Tmax ([1]; 80 mg, mean ± SD) was 2.4 ± 1.7 h, the Vd/F ([1]; 80 mg, mean ± SD) was 388 ± 392 L and the half-life ([1]; 80 mg, mean ± SD) was 25.3 ± 25.5 h. It also gave an MRT last ([1]; 80 mg, mean ± SD) of 36.4 ± 37.6 h, an AUC(0-inf) ([1]; 140 mg, mean ± SD) of 24.3 µg·h/mL and an AUC(0-t) ([1]; 140 mg, mean ± SD) of 15.4 µg·h/mL. It also gave a Cmax ([1]; 140 mg, mean ± SD) of 1.19 µg/mL, a Tmax ([1]; 140 mg, mean ± SD) of 3.7 ± 2.5 h and a Vd/F ([1]; 140 mg, mean ± SD) of 215 ± 10 L. The half-life ([1]; 140 mg, mean ± SD) was 16.4 ± 0.3 h, the MRT last ([1]; 140 mg, mean ± SD) was 23.4 ± 1.5 h and the AUC(0-inf) ([1]; 200 mg, mean ± SD) was 36.3 µg·h/mL. It also gave an AUC(0-t) ([1]; 200 mg, mean ± SD) of 22 µg·h/mL, a Cmax ([1]; 200 mg, mean ± SD) of 1.61 µg/mL and a Tmax ([1]; 200 mg, mean ± SD) of 2 ± 1.5 h. The Vd/F ([1]; 200 mg, mean ± SD) was 239 ± 110 L, the half-life ([1]; 200 mg, mean ± SD) was 17.5 ± 6.3 h and the MRT last ([1]; 200 mg, mean ± SD) was 25.3 ± 8.8 h. The “inhibition of basophil activation in vitro” value (basophil activation) was 90%, the “Ratio of IC50 β/δ” value (PI3Kβ) was 30 and the IC50 (PI3Kδ) was 4.6 nM. The AUC(0-inf) ([2]; 20 mg, mean) was 1.39 µg·h/mL, the AUC(0-t) ([2]; 20 mg, mean) was 1.14 µg·h/mL and the Cmax ([2]; 20 mg, mean) was 0.0393 µg/mL. The Tmax ([2]; 20 mg, mean) was 4 h, the Vd/F ([2]; 20 mg, mean) was 576 L and the half-life ([2]; 20 mg, mean) was 27.8 h. For the same molecule, the MRT last ([2]; 20 mg, mean) was 25 h, the MRT inf ([2]; 20 mg, mean) was 40.7 h and the AUC(0-inf) ([2]; 40 mg, mean ± SD) was 2.41 µg·h/mL. It also gave an AUC(0-t) ([2]; 40 mg, mean ± SD) of 2.27 µg·h/mL, a Cmax ([2]; 40 mg, mean ± SD) of 0.147 ± 0.0245 µg/mL and a Tmax ([2]; 40 mg, mean ± SD) of 1.8 ± 0.3 h. It also gave a Vd/F ([2]; 40 mg, mean ± SD) of 445 ± 100 L, a half-life ([2]; 40 mg, mean ± SD) of 17.8 ± 1.4 h and an MRT last ([2]; 40 mg, mean ± SD) of 18 ± 0.9 h. It also gave an MRT inf ([2]; 40 mg, mean ± SD) of 22.4 ± 1.3 h, an AUC(0-inf) ([2]; 80 mg, mean ± SD) of 6.88 µg·h/mL and an AUC(0-t) ([2]; 80 mg, mean ± SD) of 6.51 µg·h/mL. For the same molecule, the Cmax ([2]; 80 mg, mean ± SD) was 0.347 ± 0.0902 µg/mL, the Tmax ([2]; 80 mg, mean ± SD) was 2.7 ± 1.5 h and the Vd/F ([2]; 80 mg, mean ± SD) was 302 ± 70.4 L. For the same molecule, the half-life ([2]; 80 mg, mean ± SD) was 17.2 ± 1.8 h, the MRT last ([2]; 80 mg, mean ± SD) was 18.6 ± 1.9 h and the MRT inf ([2]; 80 mg, mean ± SD) was 22.7 ± 3.1 h. It also gave an AUC(0-inf) ([2]; 140 mg, mean ± SD) of 15.3 µg·h/mL, an AUC(0-t) ([2]; 140 mg, mean ± SD) of 14.2 µg·h/mL and a Cmax ([2]; 140 mg, mean ± SD) of 0.854 ± 0.289 µg/mL. The Tmax ([2]; 140 mg, mean ± SD) was 2 ± 1.7 h, the Vd/F ([2]; 140 mg, mean ± SD) was 236 ± 37.6 L and the half-life ([2]; 140 mg, mean ± SD) was 18 ± 3.6 h. It also gave an MRT last ([2]; 140 mg, mean ± SD) of 19.1 ± 3.6 h, an MRT inf ([2]; 140 mg, mean ± SD) of 24.8 ± 6.5 h and an AUC(0-inf) ([2]; 200 mg, mean ± SD) of 15 µg·h/mL. It also gave an AUC(0-t) ([2]; 200 mg, mean ± SD) of 13.1 µg·h/mL, a Cmax ([2]; 200 mg, mean ± SD) of 0.641 ± 0.378 µg/mL and a Tmax ([2]; 200 mg, mean ± SD) of 9.4 ± 10.1 h. For the same molecule, the Vd/F ([2]; 200 mg, mean ± SD) was 318 ± 92.2 L, the half-life ([2]; 200 mg, mean ± SD) was 16 ± 1.9 h and the MRT last ([2]; 200 mg, mean ± SD) was 21.5 ± 6.4 h. For the same molecule, the MRT inf ([2]; 200 mg, mean ± SD) was 21.8 ± 4 h, the “in vivo exposure (Cmax, AUC0-t, AUC0-∞) versus dose” value ([2]; single administrations, 20 to 140 mg) was “increased proportionally in a dose-dependent manner” and the CL/F ([2]; 20 mg, mean) was 14.4 L/h. For the same molecule, the CL/F ([2]; 40 mg, mean ± SD) was 17.6 ± 4.8 L/h, the CL/F ([2]; 80 mg, mean ± SD) was 12.2 ± 2.6 L/h and the CL/F ([2]; 140 mg, mean ± SD) was 9.2 ± 0.5 L/h. For the same molecule, the CL/F ([2]; 200 mg, mean ± SD) was 13.6 ± 2.4 L/h.
